Laboratory results from patent publication US20240376504A1, “ENZYMATIC SYNTHESIS OF MYCOSPORINE-LIKE AMINO ACIDS” (University of Florida Research Foundation, Incorporated, priority 2021, published 2024).

Key:
[1] = test system: recombinant His6-tagged MysD; assay: MysD reaction, relative activity of amino acid substrates (MG consumption by HPLC); type: biochemical, Nostoc linkia NIES-25; conditions: 0.25 μM MysD; L-Thr reaction (8 min) set as 100%; from concentrations of disubstituted MAAs produced
Experimental: The current and previous heterologous expression studies supported the function of MysD in the biosynthesis of disubstituted MAAs (FIG. 3).^29,35 To further characterize its catalytic properties, recombinant His6-tagged MysD of N. linkia NIES-25 was prepared from E. coli after a single affinity purification (FIG. 21). The enzyme reaction was performed with MysD (0.5 μM), MG (50 μM), and L-Thr (1 mM) in the presence of ATP (1 mM) and Mg^2+ (10 mM) at room temperature for 2 h. […] No product was formed in the control reactions without enzyme or ATP (FIG. 5A). The requirement of ATP for the MysD reaction supports its prediction as the D-Ala-D-Ala ligase-like enzyme of the ATP grasp superfamily.^29 The optimal temperature and pH of its reaction were determined at 37° C. and pH=8.5 (FIG. 22). Under these optimal reaction conditions, all 20 natural amino acids were screened (5 mM) along with MG (50 μM) in the MysD reaction. […] LC-HRMS and MS/MS analysis indicated the formation of their corresponding disubstituted MAAs, MG-Ala, MG-Arg (observed [M+H]^+: 402.1977; calculated [M+H]^+: 402.1983), MG-Cys (observed [M+H]^+: 349.1059; calculated [M+H]^+: 349.1064), mycosporine-2-Gly (observed [M+H]^+: 303.1182; calculated [M+H]^+: 303.1187), shinorine, and porphyra-334 (FIGS. 24, 25, and 26). L-Ser and L-Thr led to the complete consumption of MG in the MysD reactions after 3 h, followed by L-Cys. […] Nonetheless, the result of this biochemical study well agreed with the production of porphyra-334 along with small amounts of shinorine and MG-Ala in the above heterologous expression study (FIG. 3C). To further understand MysD's substrate preference, the enzyme concentration was lowered to 0.25 μM. […] The consumed MG level in this reaction was set as 100% to normalize its level in the five other reactions, which was determined from the concentrations of produced disubstituted MAAs in the reactions (FIG. 5C). […] Together, the results of these biochemical studies highlight the broad substrate scope of MysD and its strong preference toward L-Thr in the MAA biosynthesis.
MysD Reaction. […] The quality of MG was calculated based on its reported extinction coefficient (28,100 M^−1 cm^−1). […] The reactions were terminated and then analyzed in the HPLC and/or LC-MS analysis. […] First, the reactions were performed with 0.25 μM MysD for 8 min, which led to no more than 50% consumption of MG into porphyra-334 with the best substrate L-Thr and into shinorine with L-Ser. For the other four amino acids, the levels of their corresponding disubstituted MAAs were determined after the reaction time was elongated to 30 min. […]
HPLC and LC-MS Analysis. Samples were analyzed on a Shimadzu Prominence UHPLC system (Kyoto, Japan) coupled with a PDA detector. […]

[2] = reported value used to calculate MG; cited from earlier work

| SMILES | consumption level of MG in the MysD reaction relative to that with L-Thr [1] | extinction coefficient [2] |
| --- | --- | --- |
| C[C@@H](O)[C@H](N)C(=O)O [L-Thr] | 100% |  |
| N[C@@H](CS)C(=O)O [L-Cys] | 0.9% |  |
| C[C@H](N)C(=O)O [L-Ala] | 0.4% |  |
| N[C@@H](CO)C(=O)O [L-Ser] | about 12.7% |  |
| COC1=C(NCC(=O)O)C[C@@](O)(CO)CC1=O [MG, mycosporine-glycine] |  | 28,100 M^−1 cm^−1 |
